biological target: T1, JAK3 (Homo sapiens, UniProt P52333); assay: JAK3 inhibition assay; assay type: biochemical; settings: 2 μM ATP, Poly (Glu, Ala, Tyr) 6:3:1 coated plates, 60 minutes at 30° C.
T1 sequence (P52333 1-1124): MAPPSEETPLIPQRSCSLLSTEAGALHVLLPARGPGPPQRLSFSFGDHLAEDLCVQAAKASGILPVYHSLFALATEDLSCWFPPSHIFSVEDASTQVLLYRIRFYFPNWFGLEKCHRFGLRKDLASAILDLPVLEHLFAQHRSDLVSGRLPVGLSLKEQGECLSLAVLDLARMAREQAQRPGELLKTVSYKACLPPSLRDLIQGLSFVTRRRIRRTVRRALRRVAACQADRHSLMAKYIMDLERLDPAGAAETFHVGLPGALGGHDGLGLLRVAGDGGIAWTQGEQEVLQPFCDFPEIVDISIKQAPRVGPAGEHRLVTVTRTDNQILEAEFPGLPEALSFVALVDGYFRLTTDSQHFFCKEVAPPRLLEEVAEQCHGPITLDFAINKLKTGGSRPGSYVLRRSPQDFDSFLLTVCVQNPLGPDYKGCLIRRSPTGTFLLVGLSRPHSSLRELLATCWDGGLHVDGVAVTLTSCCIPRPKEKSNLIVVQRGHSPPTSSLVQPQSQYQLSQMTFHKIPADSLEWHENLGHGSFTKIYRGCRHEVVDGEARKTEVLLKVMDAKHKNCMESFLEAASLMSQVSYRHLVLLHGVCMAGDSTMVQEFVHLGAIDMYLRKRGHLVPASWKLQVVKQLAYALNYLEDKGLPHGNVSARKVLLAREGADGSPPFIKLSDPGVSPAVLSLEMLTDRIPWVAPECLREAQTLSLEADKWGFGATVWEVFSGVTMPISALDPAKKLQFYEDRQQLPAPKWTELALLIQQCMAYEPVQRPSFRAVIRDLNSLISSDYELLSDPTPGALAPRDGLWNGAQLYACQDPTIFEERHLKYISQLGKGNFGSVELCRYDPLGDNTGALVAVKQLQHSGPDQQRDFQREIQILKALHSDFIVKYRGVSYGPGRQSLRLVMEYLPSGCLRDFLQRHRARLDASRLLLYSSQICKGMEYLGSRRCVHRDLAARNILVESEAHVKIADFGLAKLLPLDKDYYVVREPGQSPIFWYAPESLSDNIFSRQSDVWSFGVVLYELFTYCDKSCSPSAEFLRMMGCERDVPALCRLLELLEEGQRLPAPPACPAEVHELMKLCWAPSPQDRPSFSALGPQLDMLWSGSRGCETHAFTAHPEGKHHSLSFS
Procedure: Compound inhibition of JAK was assayed by the method described by G. R. Brown, et al, Bioorg. Med. Chem. Lett. 2000, vol. 10, pp 575-579 in the following manner. Into Maxisorb plates, previously coated at 4° C. with Poly (Glu, Ala, Tyr) 6:3:1 then washed with phosphate buffered saline 0.05% and Tween (PBST), was added 2 μM ATP, 5 mM MgCl2, and a solution of compound in DMSO. The reaction was started with JAK enzyme and the plates incubated for 60 minutes at 30° C. The plates were then washed with PBST, 100 μL HRP-Conjugated 4G10 antibody was added, and the plate incubated for 90 minutes at 30° C. The plate was again washed with PBST, 100 μL TMB solution is added, and the plates were incubated for another 30 minutes at 30° C. Sulfuric acid (100 μL of 1M) was added to stop the reaction and the plate is read at 450 nm, and Ki values were determined.

Row | Ki [nM] | Compound
1 | ≤ 1000 | Nc1cccc(Nc2nccc(-c3ccc(NC(=O)CN4CCCC4CO)cc3)n2)c1 (centres unmarked) [IV-B(i)-9]
2 | ≤ 1000 | O=C(COc1ccccc1)Nc1ccc(-c2ccnc(Nc3cccc(O)c3)n2)cc1 [IV-B(i)-11]
3 | ≤ 1000 | O=C(NCc1ccccc1)c1ccc(-c2ccnc(Nc3ccccc3)n2)cc1 [IV-D(i)-2]
4 | ≤ 1000 | Nc1cccc(Nc2nccc(-c3ccc(NC(=O)CN4CCC(O)CC4)cc3)n2)c1 [IV-B(i)-8]
5 | ≤ 1000 | O=C(Nc1ccc(-c2ccnc(Nc3cccc(O)c3)n2)cc1)c1cccs1 [IV-B(i)-10]
6 | ≤ 1000 | O=C(NCC1CCCO1)c1cccc(-c2ccnc(Nc3ccccc3)n2)c1 (centres unmarked) [IV-C(i)-15]
7 | ≤ 1000 | Nc1cccc(Nc2nccc(-c3ccc(NC(=O)CN4CCC(CO)CC4)cc3)n2)c1 [IV-B(i)-7]

More lines, now with the values behind:

Row | Compound | Ki [nM]
8 | Nc1cccc(Nc2nccc(-c3ccc(NC(=O)COc4ccccc4)cc3)n2)c1 [IV-B(i)-3] | ≤ 1000
9 | Nc1cccc(Nc2nccc(-c3ccc(NC(=O)c4cccs4)cc3)n2)c1 [IV-B(i)-2] | ≤ 1000
10 | Nc1cccc(Nc2nccc(-c3ccc(NC(=O)CN4CCOCC4)cc3)n2)c1 [IV-B(i)-5] | ≤ 1000
11 | Nc1cccc(Nc2nccc(-c3ccc(NC(=O)c4ccco4)cc3)n2)c1 [IV-B(i)-4] | ≤ 1000
12 | Nc1cccc(Nc2nccc(-c3ccc(NC(=O)CN4CCCC(CO)C4)cc3)n2)c1 (centres unmarked) [IV-B(i)-6] | ≤ 1000
13 | O=C(Nc1cccc(-c2ccnc(Nc3cccc(O)c3)n2)c1)c1ccco1 [IV-A(i)-4] | ≤ 1000
14 | COc1cccc(Nc2nccc(-c3cccc(N(C)C(=O)c4ccco4)c3)n2)c1 [IV-A(i)-2] | ≤ 1000
15 | NS(=O)(=O)c1cccc(Nc2nccc(-c3ccc(NC(=O)COc4ccccc4)cc3)n2)c1 [IV-B(i)-1] | ≤ 1000
16 | NS(=O)(=O)c1cccc(Nc2nccc(-c3cccc(NC(=O)c4ccco4)c3)n2)c1 [IV-A(i)-1] | ≤ 1000
17 | Nc1cccc(Nc2nccc(-c3cccc(NC(=O)c4ccccn4)c3)n2)c1 [IV-A(i)-5] | ≤ 1000
18 | Nc1cccc(Nc2nccc(-c3cccc(NC(=O)c4cccs4)c3)n2)c1 [IV-A(i)-6] | ≤ 1000

biological target: JNK3 (Homo sapiens, UniProt P53779); assay: JNK3 inhibition assay (spectrophotometric coupled-enzyme assay); assay type: biochemical; settings: 10 nM activated JNK3, 10 μM ATP, 200 μM EGF receptor peptide, 30° C.
Sequence (P53779 whole entry): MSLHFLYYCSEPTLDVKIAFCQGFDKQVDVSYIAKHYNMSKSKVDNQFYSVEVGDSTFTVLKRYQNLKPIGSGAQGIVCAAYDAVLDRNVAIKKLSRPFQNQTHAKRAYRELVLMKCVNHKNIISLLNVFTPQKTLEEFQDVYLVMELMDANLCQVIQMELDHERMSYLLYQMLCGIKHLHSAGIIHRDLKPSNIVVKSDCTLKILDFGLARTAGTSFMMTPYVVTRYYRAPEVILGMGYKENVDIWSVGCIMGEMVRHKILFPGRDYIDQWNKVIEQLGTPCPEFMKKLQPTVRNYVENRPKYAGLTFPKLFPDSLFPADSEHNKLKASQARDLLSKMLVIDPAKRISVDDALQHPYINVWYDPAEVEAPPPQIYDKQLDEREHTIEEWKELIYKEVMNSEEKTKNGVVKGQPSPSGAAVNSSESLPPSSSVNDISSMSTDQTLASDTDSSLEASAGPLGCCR
Procedure: Compounds were assayed for the inhibition of JNK3 by a spectrophotometric coupled-enzyme assay. In this assay, a fixed concentration of activated JNK3 (10 nM) was incubated with various concentrations of a potential inhibitor dissolved in DMSO for 10 minutes at 30° C. in a buffer containing 0.1 M HEPES buffer, pH 7.5, containing 10 mM MgCl2, 2.5 mM phosphoenolpyruvate, 200 μM NADH, 150 μg/mL pyruvate kinase, 50 μg/mL lactate dehydrogenase, and 200 μM EGF receptor peptide. The EGF receptor is a phosphoryl acceptor in the JNK3-catalyzed kinase reaction. The reaction was initiated by the addition of 10 μM ATP and the assay plate is inserted into the spectrophotometer's assay plate compartment that was maintained at 30° C. The decrease of absorbance at 340 nm was monitored as a function of time. The rate data as a function of inhibitor concentration was fitted to competitive inhibition kinetic model to determine the Ki.

Row | Ki [nM] | Compound
19 | ≤ 1000 | Nc1cccc(Nc2nccc(-c3ccc(NC(=O)c4cccs4)cc3)n2)c1 [IV-B(i)-2]
20 | ≤ 1000 | O=C(COc1ccccc1)Nc1ccc(-c2ccnc(Nc3cccc(O)c3)n2)cc1 [IV-B(i)-11]

biological target: CDK-2/Cyclin A (Homo sapiens, UniProt P24941); assay: CDK2 inhibition assay (coupled enzyme assay); assay type: biochemical; settings: 100 μM ATP, 100 μM peptide, 25 nM CDK-2/Cyclin A, 30° C.
Procedure: Compounds were screened for their ability to inhibit CDK-2/Cyclin A using a standard coupled enzyme assay (Fox et al (1998) Protein Sci 7, 2249). Reactions were carried out in 100 mM HEPES pH 7.5, 10 mM MgCl2, 25 mM NaCl, 1 mM DTT and 1.5% DMSO. Final substrate concentrations in the assay were 100 μM ATP (Sigma chemicals) and 100 μM peptide (American Peptide, Sunnyvale, Calif.). Assays were carried out at 30° C. and 25 nM CDK-2/Cyclin A. Final concentrations of the components of the coupled enzyme system were 2.5 mM phosphoenolpyruvate, 350 μM NADH, 30 μg/ml pyruvate kinase and 10 μg/ml lactate dehydrogenase.
An assay stock buffer solution was prepared containing all of the reagents listed above, with the exception of CDK-2/Cyclin A, DTT and the test compound of interest. 56 μl of the test reaction was placed in a 384 well plate followed by addition of 1 μl of 2 mM DMSO stock containing the test compound (final compound concentration 30 μM). The plate was preincubated for ˜10 minutes at 30° C. and the reaction initiated by addition of 10 μl of enzyme (final concentration 25 nM). Rates of reaction were obtained using a BioRad Ultramark plate reader (Hercules, Calif.) over a 5 minute read time at 30° C. and Ki values were determined.

Row | Ki [nM] | Compound
21 | ≤ 1000 | Nc1cccc(Nc2nccc(-c3ccc(NC(=O)c4cccs4)cc3)n2)c1 [IV-B(i)-2]
22 | ≤ 1000 | O=C(NC1CCCCC1)c1ccc(-c2ccnc(Nc3ccccc3)n2)cc1 [IV-D(i)-4]
23 | ≤ 1000 | Cc1ccc(-c2ccnc(Nc3ccccc3)n2)cc1C(=O)Nc1ccccc1 [IV-C(i)-2]
24 | ≤ 1000 | Cc1ccc(-c2ccnc(Nc3ccccc3)n2)cc1C(=O)NC1CCCCC1 [IV-C(i)-3]
25 | ≤ 1000 | O=C(COc1ccccc1)Nc1ccc(-c2ccnc(Nc3cccc(O)c3)n2)cc1 [IV-B(i)-11]
26 | ≤ 1000 | Cc1ccc(-c2ccnc(Nc3ccccc3)n2)cc1C(=O)NCc1ccccc1 [IV-C(i)-4]

From patent publication US7312227B2, “Compositions useful as inhibitors of JAK and other protein kinases” (Vertex Pharmaceuticals Incorporated, priority 2002, dated 2007)
